From ChEMBL document CHEMBL5226306, “Intestinal Excretion, Intestinal Recirculation, and Renal Tubule Reabsorption Are Underappreciated Mechanisms That Drive the Distribution and Pharmacokinetic Behavior of Small Molecule Drugs” (J Med Chem, 2021) come the findings set out here.

Data set [1] can be described thus: Drug recovery in IV dosed BDC rat feces. Type of data set: ADME, organism-based. Conditions: faeces, read-out: Drug recovery.
Data set [2] in a line: Intestinal excretion in iv dosed dog. Type of data set: ADME, organism-based, Canis lupus familiaris, Intestine. To be noted: in vivo, read-out: Drug excretion.
A short description of data set [3]: Total systemic clearance in rat. In kind it is ADME. Conditions: in vivo.
Data set [4] in a line: Intestinal excretion in iv dosed rat. In kind it is ADME, organism-based, Intestine. Conditions: in vivo, read-out: Drug excretion.
A short description of data set [5]: Unbound fraction in human plasma. In kind it is ADME, cell-free.
Data set [6] can be described thus: Tubular reabsorption in dog. Type of data set: ADME, Canis lupus familiaris.
A short description of data set [7]: Intestinal clearance in rat. In kind it is ADME. Conditions: in vivo.
Data set [8] in a line: in vivo. Conditions: rat, po.
Data set [9] is described as follows: Renal clearance in dog. Type of data set: ADME, tissue-based, Canis lupus familiaris, Kidney. Conditions: in vivo.
Data set [10] is described as follows: Total plasma clearance in rat assessed as hepatic blood flow. Type of data set: ADME, cell-free.
Data set [11] is described as follows: Drug elimination in human urine. In kind it is ADME, tissue-based. Conditions: read-out: Drug excretion.
Data set [12] in a line: Drug excretion in BDC dog urine. Type of data set: ADME, tissue-based, Canis lupus familiaris.
Data set [13] can be described thus: Intestinal clearance in human. Type of data set: ADME.
Data set [14] is described as follows: Renal excretion in rat. Type of data set: ADME, tissue-based, Kidney. Conditions: in vivo, read-out: Drug excretion (converted).
A short description of data set [15]: Oral bioavailability in human. Type of data set: ADME, organism-based. To be noted: in vivo.
A short description of data set [16]: Drug excretion in rat bile. In kind it is ADME, tissue-based. Conditions: read-out: Drug excretion.
A short description of data set [17]: Total plasma clearance in dog assessed as hepatic blood flow. In kind it is ADME, cell-free, Canis lupus familiaris.
A short description of data set [18]: Intestinal clearance in dog. Type of data set: ADME, Canis lupus familiaris. Conditions: in vivo.
Data set [19] in a line: Clearance in rat urine. Type of data set: ADME, tissue-based.
Data set [20] in a line: Elimination half life in human.
Data set [21] is described as follows: Volume of distribution in human.
The nature of data set [22]: Total plasma clearance in human assessed as hepatic blood flow. Type of data set: ADME, cell-free.
The nature of data set [23]: in vivo. To be noted: rat.
Data set [24] is described as follows: Clearance in dog bile. Type of data set: ADME, tissue-based, Canis lupus familiaris. Conditions: in vivo.
Data set [25] in a line: Total systemic clearance in dog. In kind it is ADME, Canis lupus familiaris. To be noted: in vivo.

SMILES strings stand for the structures. Where only a bound is given, the exact number is not on record here.

For the compound `COc1ccc(-n2nc(C(N)=O)c3c2C(=O)N(c2ccc(N4CCCC[14C]4=O)cc2)CC3)cc1`, the dose excreted in [1], in data set [2] and in data set [4] was 20% in each case. The same compound registered a CL in data set [3] of 20%.

The compound `CC(C)(O)[C@H](F)CN1Cc2cc(NC(=O)c3cnn4cccnc34)c(N3CCOCC3)cc2C1=O` displayed a Fu in data set [5] of 0.01.

Turning to `COc1ccc(-n2nc(C(N)=O)c3c2C(=O)N(c2ccc(N4CCCCC4=O)cc2)CC3)cc1` [APIXABAN], in data set [6], the Drug absorption was determined as 0.483 mL/min/kg. For the same compound, the CL in data set [7] was over 20%; in data set [13], over 27%; in data set [18] it was over 42%. In [5], the free fraction (fraction unbound) (in general, the share of the substance not bound to proteins or other matrix) was 0.07. Moreover, the Tmax (commonly the time from dosing to the highest level) in the data set “in vivo [8]” stood at 2 h. Besides, the CL renal in [9] is 0.333 mL/min/kg; in data set [14], 0.217 mL/min/kg; in data set [19], 11.8 mL/min/kg. The QH in [10], in data set [17] and in data set [22] was under 5% in each case. Besides, the values for the dose excreted in [11], in data set [12] and in data set [16] were 27%, 21% and 10%, respectively. Further, the bioavailability (in general, dose-corrected exposure relative to a reference, in per cent) in data set [15] is 49%. In addition, the half-life – broadly, the time in which the quantity being followed falls by half – in [20] is 12 h. Moreover, the Vd (usually a proportionality between amount in the body and measured concentration, not a real space) in [21] is 0.3 L/kg.

`CCOc1ccc(Cc2cc([C@@H]3O[C@H](CO)[C@@H](O)[C@H](O)[C@H]3O)ccc2Cl)cc1` [DAPAGLIFLOZIN]: in data set [5], the fraction unbound amounted to 0.085. This compound gave a CL renal in “in vivo [23]” of 0.08 mL/min/kg.

The compound `C[C@H]1O[C@@H](O[C@H]2[C@@H](O)C[C@H](O[C@H]3[C@@H](O)C[C@H](O[C@H]4CC[C@@]5(C)[C@H](CC[C@@H]6[C@@H]5C[C@@H](O)[C@]5(C)[C@@H](C7=CC(=O)OC7)CC[C@]65O)C4)O[C@@H]3C)O[C@@H]2C)C[C@H](O)[C@@H]1O` [DIGOXIN] displayed a Fu in data set [5] of 0.2.

Consider `O=C1CN(/N=C/c2ccc([N+](=O)[O-])o2)C(=O)N1` [NITROFURANTOIN], for which, in [5], the fraction unbound stood at 0.4.

Take `CS(=O)(=O)c1ccc(C(=O)Nc2ccc(Cl)c(-c3ccccn3)c2)c(Cl)c1` [VISMODEGIB]: the figures for the CL in [24] and in [25] were 0.04 mL/min/kg and 19%, respectively. In addition, in data set [5], the fraction unbound was determined as 0.01.
